Source: patent US11564928B1, “Cannabinoid receptor type 2 (CB2) modulators and uses thereof” (Teon Therapeutics, Inc., priority 2020, dated 2023)
Read-outs that look alike come from different tables or passages of the source.

How the values were obtained:
[1] = biological target: T1, human CB2 receptor (Homo sapiens (Human), UniProt P34972); test: CB2 receptor binding assay ([3H]CP-55,940 displacement, HEK-293 membranes); conditions: membranes of HEK-293 cells with human recombinant CB2R, [3H]CP-55,940, read-out: CB2 IC50
T1 sequence (P34972 whole entry): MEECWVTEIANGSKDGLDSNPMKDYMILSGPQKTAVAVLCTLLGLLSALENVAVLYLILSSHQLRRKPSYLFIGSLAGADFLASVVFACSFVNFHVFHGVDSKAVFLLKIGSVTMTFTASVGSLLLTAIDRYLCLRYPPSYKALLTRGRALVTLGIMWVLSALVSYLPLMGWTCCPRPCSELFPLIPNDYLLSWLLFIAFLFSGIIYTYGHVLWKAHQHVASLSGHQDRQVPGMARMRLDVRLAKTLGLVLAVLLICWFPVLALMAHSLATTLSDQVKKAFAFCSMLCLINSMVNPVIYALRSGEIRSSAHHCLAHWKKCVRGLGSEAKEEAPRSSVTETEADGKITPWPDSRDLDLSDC

[2] = biological target: human recombinant CB1R (Homo sapiens (Human), UniProt P21554); test: CB1 receptor binding assay ([3H]CP-55,940 displacement, HEK-293 membranes); conditions: membranes of HEK-293 cells with human recombinant CB1R, [3H]CP-55,940, read-out: CB1 IC50
Sequence of human recombinant CB1R (P21554 whole entry): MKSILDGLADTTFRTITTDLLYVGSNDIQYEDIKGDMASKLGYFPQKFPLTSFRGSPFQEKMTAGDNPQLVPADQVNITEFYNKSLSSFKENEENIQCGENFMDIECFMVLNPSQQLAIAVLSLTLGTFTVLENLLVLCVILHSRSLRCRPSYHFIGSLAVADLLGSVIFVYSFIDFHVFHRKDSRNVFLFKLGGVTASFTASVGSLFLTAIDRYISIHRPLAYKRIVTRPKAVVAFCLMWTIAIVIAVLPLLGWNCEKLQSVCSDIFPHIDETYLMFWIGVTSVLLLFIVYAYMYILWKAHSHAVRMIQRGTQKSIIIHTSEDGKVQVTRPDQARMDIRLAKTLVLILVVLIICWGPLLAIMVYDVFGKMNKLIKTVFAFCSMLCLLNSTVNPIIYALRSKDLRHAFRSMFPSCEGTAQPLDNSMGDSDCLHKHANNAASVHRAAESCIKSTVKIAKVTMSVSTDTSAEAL
Summary of the method: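 Membranes from HEK-293 cells expressing human recombinant CB1R or CB2R were incubated with [3H]CP-55,940 and compound for 120 min at 37 °C in duplicate. The CB2R incubation buffer was 50 mM Tris-HCl, 5 mM MgCl2, 1 mM CaCl2, 0.2% BSA, pH 7.4. Bound radioactivity was filtered and counted, and IC50 was converted to Ki by Cheng–Prusoff.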

[3] = biological target: T1, human CB2 receptor; test: CB2 receptor cAMP assay (DiscoverX HitHunter cAMP XS+); type: cell-based
Procedure: cAMP Hunter CHO-K-1 cell lines expressing human CB2 receptor (Eurofins) were expanded from freezer stocks according to standard procedures. Cells were seeded in a total volume of 20 μL into white walled, 384-well microplates and incubated at 37° C. for the appropriate time prior to testing. cAMP modulation in agonist, inverse agonist or antagonist format was determined using the DiscoverX HitHunter cAMP XS+ assay (Eurofins). For agonist determination, cells were incubated with sample in the presence of EC80 forskolin to induce response. Media was aspirated from cells and replaced with 15 μL 2:1 HBSS/10 mM Hepes: cAMP XS+Ab reagent. Intermediate dilution of sample stocks was performed to generate 4× sample in assay buffer containing 4× EC80 forskolin. 5 μL of 4× sample was added to cells and incubated at 37° C. or room temperature for 30 or 60 minutes. Final assay vehicle concentration was 1%. For inverse agonist determination, cells were preincubated with sample in the presence of EC20 forskolin. Media was aspirated from cells and replaced with 15 μL, 2:1 HBSS/10 mM Hepes: cAMP XS+Ab reagent. Intermediate dilution of sample stocks was performed to generate 4× sample in assay buffer containing 4× EC20 forskolin. 5 μL of 4× sample was added to cells and incubated at 37° C. or room temperature for 30 or 60 minutes. Final assay vehicle concentration was 1%. For antagonist determination, cells were pre-incubated with sample followed by agonist challenge at the EC80 concentration. Media was aspirated from cells and replaced with 10 μL 1:1 HBSS/Hepes: cAMP XS+Ab reagent. 5 μL of 4× compound was added to the cells and incubated at 37° C. or room temperature for 30 minutes. 5 μL of 4× EC80 agonist was added to cells and incubated at 37° C. or room temperature for 30 or 60 minutes. EC80 forksolin was included. After appropriate compound incubation, assay signal was generated through incubation with 20 μL cAMP XS+ED/CL lysis cocktail for one hour followed by incubation with 20 μL, cAMP XS+EA reagent for three hours at room temperature. Microplates were read following signal generation with a PerkinElmer Envision instrument for chemiluminescent signal detection. Compound activity was analyzed using CBIS data analysis suite (ChemInnovation, CA). For agonist mode assay, percentage activity is calculated using the following formula: % Activity=100%×(1−(mean RLU of test sample−mean RLU of MAX control)/(mean RLU of vehicle control−mean RLU of MAX control)). For inverse agonist mode assay, percentage activity is calculated using the following formula: % Inverse Agonist Activity=100%×((mean RLU of test sample−mean RLU of EC20 forskolin)/(mean RLU of forskolin positive control−mean RLU of EC20 control)). For antagonist mode assay, percentage inhibition is calculated using the following formula: % Inhibition=100%×(mean RLU of test sample−mean RLU of EC80 control)/(mean RLU of forskolin positive control−mean RLU of EC80 control). Data are analyzed and IC50 is calculated using GraphPad Prism 5 and the model “log(inhibitor) vs. response—Variable slope”.

[4] = CHO-K1, read-out: Max Stimulation %
[5] = CHO-K1, cAMP Hunter CHO-K-1 cells expressing human CB2 receptor, read-out: Max Stimulation %
[6] = cAMP Hunter CHO-K-1 cells expressing human CB2 receptor, read-out: cAMP IC50

Emax [3, 5] [%] | IC50 [3, 6] [µM] | SMILES | IC50 [1] [µM] | IC50 [2] [µM] | IC50 [3] [µM] | Emax [3, 4] [%] | IC50 ([1]; class symbols) [µM] | IC50 ([2]; class symbols) [µM]
– | – | N#Cc1ccc(-c2cnc3c(c2)cc(C(=O)NC24CC(C2)C4)c(=O)n3CCN2CCOCC2)cc1 [Compound 46, N-(bicyclo[1.1.1]pentan-1-yl)-6-(4-cyanophenyl)-1-(2-morpholinoethyl)-2-oxo-1,2-dihydro-1,8-naphthyridine-3-carboxamide] | 0.006 | 8.61 | 0.014 | 77 | – | –
66 | 0.0002 | C[C@@H](NC(=O)c1cc2cc(-c3ccc(OC(F)F)cn3)cnc2n(CCN2CCOCC2)c1=O)c1ccc(F)cc1 [Compound 48, (R)-6-(5-(difluoromethoxy)pyridin-2-yl)-N-(1-(4-fluorophenyl)ethyl)-1-(2-morpholinoethyl)-2-oxo-1,2-dihydro-1,8-naphthyridine-3-carboxamide] | 0.0045 | > 10 | – | – | – | –
– | – | COc1ccc(-c2cnc3c(c2)cc(C(=O)NC24CC(C2)C4)c(=O)n3CCN2CCOCC2)cc1 [Compound 50, N-(bicyclo[1.1.1]pentan-1-yl)-6-(4-methoxyphenyl)-1-(2-morpholinoethyl)-2-oxo-1,2-dihydro-1,8-naphthyridine-3-carboxamide] | 0.0043 | 2.78 | 0.0006 | 80 | – | –
– | – | CC1CCC(NC(=O)c2cc3cc(-c4ccc(OC(F)F)cc4)cnc3n(CCN3CCOCC3)c2=O)CC1 (centres unmarked) [Compound 51, 6-(4-(difluoromethoxy)phenyl)-N-(4-methylcyclohexyl)-1-(2-morpholinoethyl)-2-oxo-1,2-dihydro-1,8-naphthyridine-3-carboxamide] | 0.0021 | > 10 | 0.002 | 108 | – | –
– | – | O=C(NC1CC2(CCC2)C1)c1cc2cc(-c3ccc(OC(F)F)cc3)cnc2n(CCN2CCOCC2)c1=O [Compound 52, 6-(4-(difluoromethoxy)phenyl)-1-(2-morpholinoethyl)-2-oxo-N-(spiro[3.3]heptan-2-yl)-1,2-dihydro-1,8-naphthyridine-3-carboxamide] | 0.01 | 0.962 | 0.001 | 77 | – | –
85 | 0.002 | CC(NC(=O)c1cc2cc(-c3ccc(OC(F)F)cc3)cnc2n(CCN2CCOCC2)c1=O)c1ccc(F)cc1 (centres unmarked) [Compound 53, 6-(4-(difluoromethoxy)phenyl)-N-(1-(4-fluorophenyl)ethyl)-1-(2-morpholinoethyl)-2-oxo-1,2-dihydro-1,8-naphthyridine-3-carboxamide] | – | – | – | – | < 0.1 | > 1
84 | 0.011 | CC(NC(=O)c1cc2cc(-c3ccc(OC(F)F)cn3)cnc2n(CCN2CCOCC2)c1=O)c1ccc(F)cc1 (centres unmarked) [Compound 55, 6-(5-(difluoromethoxy)pyridin-2-yl)-N-(1-(4-fluorophenyl)ethyl)-1-(2-morpholinoethyl)-2-oxo-1,2-dihydro-1,8-naphthyridine-3-carboxamide] | 0.0006 | 2.94 | – | – | – | –
– | – | CC1CCC(NC(=O)c2cc3cc(-c4ccc(C#N)cn4)cnc3n(CCN3CCOCC3)c2=O)CC1 (centres unmarked) [Compound 57, 6-(5-cyanopyridin-2-yl)-N-(4-methylcyclohexyl)-1-(2-morpholinoethyl)-2-oxo-1,2-dihydro-1,8-naphthyridine-3-carboxamide] | – | – | 0.008 | 63 | < 0.1 | > 1
– | – | CC1CCC(NC(=O)c2cc3cc(Br)cnc3n(CCN3CCOCC3)c2=O)CC1 (centres unmarked) [Compound 61, 6-bromo-N-(4-methylcyclohexyl)-1-(2-morpholinoethyl)-2-oxo-1,2-dihydro-1,8-naphthyridine-3-carboxamide] | – | – | 0.013 | 83 | < 0.1 | > 1
– | – | CC1CCC(NC(=O)c2cc3cc(-c4ccccn4)cnc3n(CCN3CCOCC3)c2=O)CC1 (centres unmarked) [Compound 62, N-(4-methylcyclohexyl)-1-(2-morpholinoethyl)-2-oxo-6-(pyridin-2-yl)-1,2-dihydro-1,8-naphthyridine-3-carboxamide] | – | – | 0.013 | 33 | < 0.1 | > 1
– | – | N#Cc1ccc(-c2cnc3c(c2)cc(C(=O)NC2CC4(CCC4)C2)c(=O)n3Cc2ccc(F)cc2)nc1 [Compound 69, 6-(5-cyanopyridin-2-yl)-1-(4-fluorobenzyl)-2-oxo-N-(spiro[3.3]heptan-2-yl)-1,2-dihydro-1,8-naphthyridine-3-carboxamide] | – | – | 0.021 | 79 | < 0.1 | > 1
– | – | O=C(NC12CC(C1)C2)c1cc2cc(Br)cnc2n(Cc2ccc(F)cc2)c1=O [Compound 82, N-(bicyclo[1.1.1]pentan-1-yl)-6-bromo-1-(4-fluorobenzyl)-2-oxo-1,2-dihydro-1,8-naphthyridine-3-carboxamide] | – | – | 0.001 | 86 | < 0.1 | > 1
– | – | O=C(NC12CC(C1)C2)c1cc2cc(C3CC3)cnc2n(Cc2ccc(F)cc2)c1=O [Compound 83, N-(bicyclo[1.1.1]pentan-1-yl)-6-cyclopropyl-1-(4-fluorobenzyl)-2-oxo-1,2-dihydro-1,8-naphthyridine-3-carboxamide] | – | – | 0.005 | 93 | < 0.1 | > 1
– | – | CC(C)c1cnc2c(c1)cc(C(=O)N[C@H](C)c1ccc(C#N)cc1)c(=O)n2Cc1ccc(F)cc1 [Compound 85, (R)—N-(1-(4-cyanophenyl)ethyl)-1-(4-fluorobenzyl)-6-isopropyl-2-oxo-1,2-dihydro-1,8-naphthyridine-3-carboxamide] | 0.0079 | 0.605 | 0.0005 | 93 | – | –
– | – | CC(C)c1cnc2c(c1)cc(C(=O)N[C@H](C)c1ccc(F)cc1)c(=O)n2Cc1ccc(F)cc1 [Compound 89, (R)-1-(4-fluorobenzyl)-N-(1-(4-fluorophenyl)ethyl)-6-isopropyl-2-oxo-1,2-dihydro-1,8-naphthyridine-3-carboxamide] | – | – | 0.007 | 92 | < 0.1 | > 1
– | – | C[C@@H](NC(=O)c1cc2cc(C3CC3)cnc2n(Cc2ccc(F)cc2)c1=O)c1ccc(F)cc1 [Compound 94, (R)-6-cyclopropyl-1-(4-fluorobenzyl)-N-(1-(4-fluorophenyl)ethyl)-2-oxo-1,2-dihydro-1,8-naphthyridine-3-carboxamide] | 0.0041 | 3.26 | 0.0008 | 55 | – | –

SMILES | Emax [3, 5] [%] | IC50 [3, 6] [µM] | IC50 [1] [µM] | IC50 [2] [µM] | IC50 [3] [µM] | Emax [3, 4] [%] | IC50 ([1]; class symbols) [µM] | IC50 ([2]; class symbols) [µM]
N#Cc1ccc(-c2cnc3c(c2)cc(C(=O)NC24CC(C2)C4)c(=O)n3CCN2CCOCC2)nc1 [Compound 59, N-(bicyclo[1.1.1]pentan-1-yl)-6-(5-cyanopyridin-2-yl)-1-(2-morpholinoethyl)-2-oxo-1,2-dihydro-1,8-naphthyridine-3-carboxamide] | – | 0.119 | 0.13 | > 10 | – | 75 | – | –
CC1CCC(NC(=O)c2cc3cc(-c4ncccn4)cnc3n(CCN3CCOCC3)c2=O)CC1 (centres unmarked) [Compound 63, N-(4-methylcyclohexyl)-1-(2-morpholinoethyl)-2-oxo-6-(pyrimidin-2-yl)-1,2-dihydro-1,8-naphthyridine-3-carboxamide] | – | > 1 | – | – | – | – | < 0.1 | > 1
